# From patent US20060171966A1, “Variants of vibrio cholerae 01 biotype e1 tor with attributes of classical biotype” (priority 2002, published 2006)
# Tests used:
# Format in all cases: cell-based, Vibrio cholerae O1
# V. cholerae O1 Matlab II = assay: Sensitivity to polymyxin B (50U), Matlab II; details: 1 strain
# Text: (§1) […]. The basis of a retrospective examination of these strains was their unusual response to polymyxin B (50U), chicken cell agglutination (CCA), Voges-Proskauer (VP) reaction, and sensitivity to group IV and V phages, all of which are phenotypic traits commonly used to differentiate between the classical and El Tor biotypes. The 24 strains were reexamined for the above phenotypic characteristics by standard procedures.
# (§2) We examined the commonly used phenotypic traits used to distinguish between the El Tor and classical biotypes of V. cholerae and differentiated the 24 strains into three types (Table 1), which we classified as Matlab types I, II, and III. Matlab type I included two strains belonging to the Inaba serotype that were resistant to both the El Tor-specific group IV and the classical biotype specific group V phages, negative by the CCA and VP tests (both are classical traits), and resistant to polymyxin B (an El Tor trait).
# V. cholerae O1 Matlab I = assay: Sensitivity to polymyxin B (50U), Matlab I; details: 2 strains
# Text: as §1, §2
# [1] = test system: V. cholerae O1 Matlab III; assay: Sensitivity to polymyxin B (50U), Matlab III; details: 21 strains
# Text: as §1, §2
substance,measurement,setting,value
polymyxin B,Sensitivity to polymyxin B (50U),V. cholerae O1 Matlab II,sensitive
same,Sensitivity to polymyxin B (50U),V. cholerae O1 Matlab I,resistant
same,Sensitivity to polymyxin B (50U),[1],typical of the El Tor biotype
